One data set addresses T1, Toll-like receptor 9 (Homo sapiens, UniProt Q9NR96).
T1 sequence (Q9NR96 whole entry): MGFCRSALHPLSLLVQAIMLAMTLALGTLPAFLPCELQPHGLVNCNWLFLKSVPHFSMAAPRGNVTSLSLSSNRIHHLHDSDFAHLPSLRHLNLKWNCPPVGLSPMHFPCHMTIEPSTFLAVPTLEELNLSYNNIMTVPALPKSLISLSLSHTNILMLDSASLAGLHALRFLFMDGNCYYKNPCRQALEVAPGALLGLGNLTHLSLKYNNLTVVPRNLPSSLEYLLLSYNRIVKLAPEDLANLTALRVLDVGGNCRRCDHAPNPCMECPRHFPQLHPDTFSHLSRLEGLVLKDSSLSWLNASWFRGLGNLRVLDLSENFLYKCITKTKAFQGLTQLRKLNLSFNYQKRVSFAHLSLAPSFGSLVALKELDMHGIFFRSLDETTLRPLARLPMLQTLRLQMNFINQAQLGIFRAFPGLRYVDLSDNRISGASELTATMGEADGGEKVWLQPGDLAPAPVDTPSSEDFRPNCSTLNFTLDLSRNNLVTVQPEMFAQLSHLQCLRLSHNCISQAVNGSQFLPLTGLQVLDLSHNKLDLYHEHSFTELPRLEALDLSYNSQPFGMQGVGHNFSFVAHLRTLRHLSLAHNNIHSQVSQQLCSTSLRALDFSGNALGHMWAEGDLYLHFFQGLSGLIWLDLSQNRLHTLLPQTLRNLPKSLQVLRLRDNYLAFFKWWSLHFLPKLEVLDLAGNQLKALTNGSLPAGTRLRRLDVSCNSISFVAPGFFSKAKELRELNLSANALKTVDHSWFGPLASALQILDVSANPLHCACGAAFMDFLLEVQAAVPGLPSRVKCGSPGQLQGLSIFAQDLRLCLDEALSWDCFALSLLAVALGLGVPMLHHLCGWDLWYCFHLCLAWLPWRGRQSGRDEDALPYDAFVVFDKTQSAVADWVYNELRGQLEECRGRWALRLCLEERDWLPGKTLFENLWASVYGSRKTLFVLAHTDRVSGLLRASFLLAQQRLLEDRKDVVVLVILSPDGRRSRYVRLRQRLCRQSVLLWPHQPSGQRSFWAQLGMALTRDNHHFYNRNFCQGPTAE
Briefly: Antagonist activity at human TLR9 transfected in HEK293 cells after 6 hrs by NF-kappaB luciferase reporter assay. Format: cell-based. In general terms: Reporter assays use an easily measured gene product as a stand-in for the process of interest.

Data set [1] in a line: Aqueous solubility of the compound at pH 7.4. The data set is classed as physicochemical.
The subject of another data set is HEK293. Kind of data set: Selectivity ratio of IC50 for human TLR7 transfected in HEK293 cells to IC50 for human TLR9 transfected in HEK293 cells. Format: cell-based.
A further data set is filed under the species Homo sapiens. Briefly: Metabolic stability in human assessed per mg protein. The data set is classed as ADME.
Another data set concerns the target T2, Toll-like receptor 8 (Homo sapiens, UniProt Q9NR97).
T2 sequence (Q9NR97 whole entry): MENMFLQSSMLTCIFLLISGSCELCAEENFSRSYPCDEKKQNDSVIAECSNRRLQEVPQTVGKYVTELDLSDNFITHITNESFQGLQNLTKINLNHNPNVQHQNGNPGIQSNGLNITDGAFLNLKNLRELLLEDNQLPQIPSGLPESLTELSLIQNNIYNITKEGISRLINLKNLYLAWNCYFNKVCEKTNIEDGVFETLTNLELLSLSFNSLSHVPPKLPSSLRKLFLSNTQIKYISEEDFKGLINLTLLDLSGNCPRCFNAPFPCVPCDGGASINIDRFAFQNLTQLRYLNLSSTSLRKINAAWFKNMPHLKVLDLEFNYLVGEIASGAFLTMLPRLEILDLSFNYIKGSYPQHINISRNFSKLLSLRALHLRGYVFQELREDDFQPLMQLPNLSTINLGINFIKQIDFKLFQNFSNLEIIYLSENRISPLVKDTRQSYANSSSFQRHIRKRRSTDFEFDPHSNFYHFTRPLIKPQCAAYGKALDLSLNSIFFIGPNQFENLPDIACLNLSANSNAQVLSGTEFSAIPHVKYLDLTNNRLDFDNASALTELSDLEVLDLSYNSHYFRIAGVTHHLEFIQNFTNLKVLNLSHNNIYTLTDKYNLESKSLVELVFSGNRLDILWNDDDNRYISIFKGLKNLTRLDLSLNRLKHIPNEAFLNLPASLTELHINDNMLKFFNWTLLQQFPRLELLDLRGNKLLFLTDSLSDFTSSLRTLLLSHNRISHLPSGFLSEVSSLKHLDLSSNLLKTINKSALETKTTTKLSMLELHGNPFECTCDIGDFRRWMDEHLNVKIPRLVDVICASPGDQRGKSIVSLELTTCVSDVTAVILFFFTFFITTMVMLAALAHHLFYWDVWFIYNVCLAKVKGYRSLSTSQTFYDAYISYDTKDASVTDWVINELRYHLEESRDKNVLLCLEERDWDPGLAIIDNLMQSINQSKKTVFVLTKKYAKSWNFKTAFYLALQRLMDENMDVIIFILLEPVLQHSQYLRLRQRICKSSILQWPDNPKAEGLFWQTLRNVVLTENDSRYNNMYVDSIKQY
Briefly: Antagonist activity at human TLR8 transfected in HEK293 cells after 6 hrs by NF-kappaB luciferase reporter assay. Format: cell-based.

The test system of data set [2] is Mus musculus. Briefly: Inhibition of IL-6 production in iv dosed C57BL/6 mouse peritoneal lavage fluid compound administered 1 hr prior to CpG1826 treatment measured after 2 hrs by ELISA. Format: functional, organism-based. Background: ELISA stands for enzyme-linked immunosorbent assay.
For data set [3], the system named is Mus musculus. Kind of data set: Inhibition of IL-6 production in iv dosed C57BL/6 mouse plasma compound administered 1 hr prior to CpG1826 treatment measured after 2 hrs by ELISA. Conditions: C57BL/6, Plasma. The data set is classed as functional.
The subject of the next data set is PBMC. Kind of data set: Inhibition of CpG-induced IL-6 production in human PBMC after 24 hrs by ELISA. Format: functional, cell-based.
A further data set addresses T3, Toll-like receptor 7 (Homo sapiens, UniProt Q9NYK1).
T3 sequence (Q9NYK1 whole entry): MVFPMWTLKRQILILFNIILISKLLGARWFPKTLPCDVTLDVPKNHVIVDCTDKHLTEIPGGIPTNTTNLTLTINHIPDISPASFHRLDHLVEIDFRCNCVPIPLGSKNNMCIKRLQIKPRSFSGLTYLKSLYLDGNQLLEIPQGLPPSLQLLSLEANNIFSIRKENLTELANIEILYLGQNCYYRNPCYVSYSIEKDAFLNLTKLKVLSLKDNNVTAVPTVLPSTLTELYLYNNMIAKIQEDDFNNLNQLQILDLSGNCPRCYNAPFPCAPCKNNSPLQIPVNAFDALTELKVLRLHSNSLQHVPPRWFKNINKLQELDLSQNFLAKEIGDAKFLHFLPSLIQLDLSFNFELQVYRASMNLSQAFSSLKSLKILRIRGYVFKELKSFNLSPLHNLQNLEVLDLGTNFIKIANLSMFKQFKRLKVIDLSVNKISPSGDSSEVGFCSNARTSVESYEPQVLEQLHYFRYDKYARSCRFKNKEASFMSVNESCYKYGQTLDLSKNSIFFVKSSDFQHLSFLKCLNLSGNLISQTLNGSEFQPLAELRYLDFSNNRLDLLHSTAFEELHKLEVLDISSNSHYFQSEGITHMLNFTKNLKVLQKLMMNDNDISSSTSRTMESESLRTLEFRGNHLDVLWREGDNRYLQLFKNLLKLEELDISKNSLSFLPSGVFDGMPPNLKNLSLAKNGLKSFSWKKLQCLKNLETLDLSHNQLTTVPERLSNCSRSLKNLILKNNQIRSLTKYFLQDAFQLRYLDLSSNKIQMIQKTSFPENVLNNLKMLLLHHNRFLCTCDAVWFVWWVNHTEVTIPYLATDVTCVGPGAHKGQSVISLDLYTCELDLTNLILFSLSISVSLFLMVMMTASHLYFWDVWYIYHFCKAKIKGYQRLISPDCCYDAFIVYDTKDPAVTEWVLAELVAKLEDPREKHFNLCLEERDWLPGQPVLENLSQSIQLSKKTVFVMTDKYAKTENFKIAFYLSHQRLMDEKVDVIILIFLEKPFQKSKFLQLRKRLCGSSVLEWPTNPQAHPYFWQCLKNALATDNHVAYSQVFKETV
Briefly: Antagonist activity at human TLR7 transfected in HEK293 cells assessed as hydrolysis of pNPP after 24 hrs by SEAP reporter assay. The data set is classed as cell-based.

In a further data set the test system is Splenocyte. Kind of data set: Inhibition of CpG-induced IL-6 production in C57BL/6 mouse splenocytes after 24 hrs by ELISA. The data set is classed as functional, cell-based. The settings on record: C57BL/6, Splenocyte.

Each structure is given as a SMILES string. In brackets after ≈: the same amount, converted by molar mass. A value given as a limit tells only on which side of the number the result lay.

The record followed here is ChEMBL document CHEMBL3351379, “Dihydropyrrolo[2,3-d]pyrimidines: Selective Toll-Like Receptor 9 Antagonists from Scaffold Morphing Efforts” (ACS Med Chem Lett, 2014).

By IC50 is commonly meant the midpoint of a concentration-inhibition curve. What is called solubility is how much of the substance goes into solution per volume. In turn, `CN1CCN(c2ccc(-c3ncc4c(n3)N(CCCN3CCOCC3)CC4)cc2)CC1` had an IC50 against Toll-like receptor 9 of 8.6 nM. For the same molecule, the solubility in data set [1] turned out to be 1100 µg/mL (≈ 2600 µM). Besides, the Ratio IC50 in the data set with HEK293 is above 50. In the case of `Cc1nc(-c2ccc(N3CCN(C)CC3)cc2)nc2c1CCN2CCCN1CCCC1`, it took 3.5 nM to reach half-maximal inhibition at Toll-like receptor 9 (IC50). The same molecule came in with a Stability in the data set filed under Homo sapiens of 35 µL/min/mg. In turn, `CN1CCN(c2ccc(-c3ncc4c(n3)N(CCCN3CCCC3)CC4)cc2)CC1` came in with an IC50 on Toll-like receptor 9 of 3.9 nM. The molecule also showed a Stability in the data set filed under Homo sapiens of 71 µL/min/mg. As for `CN1CCN(c2ccc(-c3nc4c(c(NCCN5CCOCC5)n3)COCC4)cc2)CC1`, the IC50 on Toll-like receptor 9 was found to be 190 nM. In turn, `COc1cc2nc(-c3ccc(N4CCN(C)CC4)cc3)nc(NCCN3CCOCC3)c2cc1OC` had an IC50 against Toll-like receptor 9 of 4.6 nM. In data set [1], this molecule gave a solubility of 120 µg/mL (≈ 244 µM). `CN1CCN(c2ccc(-c3nc(N(C)C)c4c(n3)N(CCCN3CCCC3)CC4)cc2)CC1`: 73 nM corresponded to half-maximal inhibition at Toll-like receptor 9 (IC50). In turn, `CN1CCN(c2cccc(-c3ncc4c(n3)N(CCCN3CCOCC3)CC4)c2)CC1` showed an IC50 on Toll-like receptor 9 of 56 nM. As to `Cc1cnc(-c2ccc(N3CCN(C)CC3)cc2)nc1NCCN1CCOCC1`, the IC50 on Toll-like receptor 9 worked out at 120 nM. In the case of `COCCN1CCN(c2ccc(-c3ncc4c(n3)N(CCCN3CCOCC3)CC4)cc2)CC1`, on Toll-like receptor 9, 28 nM corresponded to half-maximal inhibition (IC50). In the case of `CN1CCN(c2ccc(-c3nccc(NCCN4CCOCC4)n3)cc2)CC1`, the IC50 against Toll-like receptor 9 came to 190 nM.

For the molecule `CN1CCN(c2ccccc2-c2ncc3c(n2)N(CCCN2CCOCC2)CC3)CC1`, it took 56 nM to reach half-maximal inhibition at Toll-like receptor 9 (IC50). Turning to `CN1CCN(c2ccc(-c3ncc4c(n3)N(CCCCN3CCOCC3)CC4)cc2)CC1`, the IC50 on Toll-like receptor 9 was determined as 11 nM. `COc1nc(-c2ccc(N3CCN(C)CC3)cc2)nc2c1CCN2CCCN1CCCC1` displayed an IC50 at Toll-like receptor 9 of 120 nM. Regarding `CN1CCN(c2ccc(-c3ncc4c(n3)N(CCN3CCOCC3)CC4)cc2)CC1`, at Toll-like receptor 9, it took 73 nM to reach half-maximal inhibition (IC50). On Toll-like receptor 9, `Cc1nc(-c2ccc(N3CCN(C)CC3)cc2)nc2c1CCN2CCN1CCCC1` showed a concentration for half-maximal inhibition (IC50) of 11 nM. Consider `Cc1nc(-c2ccc(N3CCN(C)CC3)cc2)nc2c1CCN2CCN1CCOCC1`, for which the IC50 against Toll-like receptor 9 worked out at 20 nM. Also, the Ratio IC50 in the data set with HEK293 worked out at 93. In the data set listed under Homo sapiens, the Stability is below 10 µL/min/mg.

In turn, `Cc1nc(-c2ccc(N3CCN(C)CC3)cc2)nc(NCCN2CCOCC2)c1C` had an IC50 at Toll-like receptor 9 of 35 nM. The Stability in the data set listed under Homo sapiens amounted to 69 µL/min/mg. The ED50 is the midpoint of the dose-response relation. Low values mean greater potency, high ones weaker potency. As to `OCCN1CCN(c2ccc(-c3ncc4c(n3)N(CCCN3CCOCC3)CC4)cc2)CC1`, the IC50 against Toll-like receptor 8 is above 10000 nM; against Toll-like receptor 9 it was 13 nM; in the data set on PBMC, 244 nM; on Toll-like receptor 7, 970 nM; with Splenocyte, 74 nM. In [1], this molecule displayed a solubility above 10000 µg/mL. Also, the inhibition result in the data set with Mus musculus [2] was “Dose-dependent effect”. In addition, the 50% effect level with Mus musculus [3] (ED50) was put at a dose of 0.8 mg/kg. For the same molecule, the Ratio IC50 with HEK293 is 75. In turn, `Cc1nc(-c2ccc(N3CCN(C)CC3)cc2)nc2c1CCN2CCCN1CCOCC1` displayed an IC50 against Toll-like receptor 9 of 16 nM. Also, the Stability in the data set listed under Homo sapiens was below 10 µL/min/mg.

On Toll-like receptor 9, `CN1CCN(c2ccc(-c3ncc4c(n3)N(CCCN3CCOCC3)CC4)cc2)C(=O)C1` yielded an IC50 above 1000 nM.

In the case of `CN1CCN(c2ccc(-c3nc4c(c(NCCN5CCOCC5)n3)CCCC4)cc2)CC1`, the midpoint of inhibition at Toll-like receptor 9, the IC50, lay at 27 nM. The Ratio IC50 with HEK293 was determined as 71. Regarding `CN1CCN(c2ccc(-c3nc(Cl)c4c(n3)N(CCCN3CCCC3)CC4)cc2)CC1`, at Toll-like receptor 9, the IC50 worked out at 84 nM.
